Experimental data published in ChEMBL document CHEMBL3137667, “[Drug-induced liver injury; fourteenth updated edition of the bibliographic database of liver injuries and related drugs]” (Gastroenterol Clin Biol, 2004).

Tests used:
[1] = human
[2] = human; remark: listed apart in the source
[3] = human, serum
[4] = human; remark: listed apart in the source
[5] = human, serum, 4383 h
[6] = human; remark: listed apart in the source
[7] = human; remark: listed apart in the source
[8] = human, serum; remark: listed apart in the source
[9] = human; remark: listed apart in the source
[10] = Times to onset, minimal and maximal, observed in the indexed observations. [column 'DELAI' in source]; conditions: human
[11] = human; remark: listed apart in the source
[12] = human; remark: listed apart in the source
[13] = Highest frequency of moderate liver toxicity observed during clinical trials, expressed as a percentage. [column '% BIOL' in source]; conditions: human
[14] = Highest frequency of acute liver toxicity observed during clinical trials, expressed as a percentage. [column '% AIGUE' in source]; conditions: human
[15] = human; remark: listed apart in the source
[16] = Proposed mechanism(s) of liver damage. [column 'MEC' in source]; conditions: human
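Wherever Hepatotoxicity (association with vascular disease) is given: count of indexed literature references reporting vascular liver injury in humans, e.g. peliosis hepatitis, hepatic veno-occlusive disease or Budd-Chiari syndrome.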
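Wherever Hepatotoxicity (benign tumour) is given: value is a count of indexed literature references citing a benign tumour confirmed by histopathology.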
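Wherever Hepatotoxicity (choleostasis) is given: human cholestatic liver injury, shown by histopathology or by peak ALT or AST elevation over alkaline phosphatase ratio below 2, value counts indexed literature reports.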
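Wherever Hepatotoxicity (chronic liver disease) is given: chronic liver injury confirmed by histopathology or persistently raised serum aminotransferase activity beyond 6 months, value given as the count of indexed literature references.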
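Wherever Hepatotoxicity (cirrhosis) is given: value is a count of indexed literature references reporting cirrhosis confirmed by histopathology.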
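Wherever Hepatotoxicity (cytolytic) is given: human cytolytic liver injury, shown by histopathology or by a ratio above 5 of peak ALT or AST elevation to alkaline phosphatase elevation, value counts indexed references.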
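Wherever Hepatotoxicity (granulomatous hepatitis) is given: value is a count of indexed literature references reporting granulomatous liver disease confirmed by histopathology.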
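Wherever Hepatotoxicity (malignant tumour) is given: malignant tumour confirmed by histopathology, value gives the count of indexed literature references reporting it.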
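Wherever Hepatotoxicity (severe hepatitis) is given: human clinical data: severe hepatitis, meaning potentially life-threatening liver failure or clinically observed cases, the value counts how many indexed literature references report it.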
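Wherever Hepatotoxicity (steatosis) is given: steatosis confirmed by histopathology, value is the count of indexed references.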

| Compound | Hepatotoxicity (benign tumour) [1] | Hepatotoxicity (association with vascular disease) [2] | Hepatotoxicity (moderate) [3] | Hepatotoxicity (cytolytic) [4] | Hepatotoxicity (chronic liver disease) [5] | Hepatotoxicity (choleostasis) [6] | Hepatotoxicity (severe hepatitis) [7] | Hepatotoxicity (acute) [8] | Hepatotoxicity (malignant tumour) [9] | Hepatotoxicity (time to onset) [10] | Hepatotoxicity (steatosis) [11] | Hepatotoxicity (granulomatous hepatitis) [12] | Hepatotoxicity (moderate) [13] [%] | Hepatotoxicity (acute) [14] [%] | Hepatotoxicity (cirrhosis) [15] | Hepatotoxicity (mechanism) [16] | also measured |
| --- | --- | --- | --- | --- | --- | --- | --- | --- | --- | --- | --- | --- | --- | --- | --- | --- | --- |
| CC(O)CCC(=O)c1ccoc1 (stereo not drawn) | 0 | 0 | 0 | 0 | 0 | 0 | 1 | 1 | 0 | 2 days - 8 days | 0 | 0 | 0 | 11.3 | 0 | Dose-dependant | – |
| NCC1(CC(=O)O)CCCCC1 [GABAPENTIN] | 0 | 0 | 2 | 1 | 0 | 3 | 0 | 5 | 0 | 9 days - 4 months | 1 | 0 | 2.4 | 2.4 | 0 | Allergic | – |
| BCG VACCINE | 0 | 0 | 7 | 2 | 0 | 2 | 0 | 6 | 0 | 1 hour - 2 years | 0 | 32 | 10 | 0.9 | 0 | Allergic | – |
| CC1CCc2cc(F)cc3c(=O)c(C(=O)O)cn1c23 (stereo not drawn) [FLUMEQUINE] | 0 | 0 | 0 | 0 | 0 | 0 | 0 | 0 | 0 | 24 days | 0 | 1 | 0 | 0 | 0 | Allergic | – |
| CCCCN1CCCCC1C(=O)Nc1c(C)cccc1C (stereo not drawn) [BUPIVACAINE] | 0 | 0 | 0 | 1 | 0 | 2 | 0 | 2 | 0 | 2 weeks - 1 month | 0 | 0 | 0 | 0 | 0 | Allergic | – |
| CN(C)[C@@H]1C(O)=C(C(N)=O)C(=O)[C@@]2(O)C(O)=C3C(=O)c4c(O)ccc(Cl)c4[C@@H](O)[C@H]3C[C@@H]12 [DEMECLOCYCLINE] | 0 | 0 | 0 | 1 | 0 | 0 | 2 | 1 | 0 | 2 days - 2 months | 1 | 0 | 0 | 0 | 0 | Dose-dependant | – |
| CS(=O)(=O)c1ccc(C2=C(c3ccccc3)C(=O)OC2)cc1 [ROFECOXIB] | 0 | 0 | 1 | 1 | 0 | 1 | 0 | 2 | 0 | 9 weeks | 0 | 0 | 3.2 | 0 | 0 | Allergic | – |
| Cc1c(N(C)CS(=O)(=O)[O-])c(=O)n(-c2ccccc2)n1C.[Na+] [DIPYRONE SODIUM] | 0 | 0 | 1 | 0 | 0 | 0 | 0 | 3 | 0 | 2 hours - 18 days | 0 | 0 | 0 | 0 | 0 | Allergic | – |
| CNNCc1ccc(C(=O)NC(C)C)cc1 [PROCARBAZINE] | 0 | 0 | 0 | 2 | 0 | 0 | 0 | 2 | 1 | 2 weeks - 3 weeks | 0 | 1 | 0 | 1 | 0 | Allergic | – |
| Cc1nnc(SCC2=C(C(=O)O)N3C(=O)[C@@H](NC(=O)Cn4cnnn4)[C@H]3SC2)s1 [CEFAZOLIN] | 0 | 0 | 11 | 1 | 0 | 1 | – | 2 | 0 | 1 week - 25 days | 0 | 0 | – | – | 0 | Allergic | Hepatotoxicity (severe hepatitis) ([7]; Liver): 0; Hepatotoxicity (moderate) ([13]; Liver): 42.9%; Hepatotoxicity (acute) ([14]; Liver): 0% |
| Cc1ncc(C[n+]2csc(CCO)c2C)c(N)n1 [THIAMINE ION] | 0 | 0 | 0 | – | 1 | – | – | 0 | 0 | 2 years | 1 | – | – | – | 0 | – | Hepatotoxicity (cytolytic) ([4]; Liver): 0; Hepatotoxicity (choleostasis) ([6]; Liver): 0; Hepatotoxicity (severe hepatitis) ([7]; Liver): 0; Hepatotoxicity (granulomatous hepatitis) ([12]; Liver): 0; Hepatotoxicity (moderate) ([13]; Liver): 0%; Hepatotoxicity (acute) ([14]; Liver): 0%; Hepatotoxicity (mechanism) ([16]; Liver): Dose-dependant |
| CCC(COC(=O)c1cc(OC)c(OC)c(OC)c1)(c1ccccc1)N(C)C (stereo not drawn) [TRIMEBUTINE] | 0 | 0 | 0 | 1 | 0 | 0 | 0 | 1 | 0 | 2 weeks | 0 | 0 | 0 | 0 | 0 | Allergic | – |
| CC12CCC(CC1=O)C2(C)C (stereo not drawn) [CAMPHOR] | 0 | 0 | 0 | 1 | 0 | 0 | 0 | 1 | 0 | 3 days | 0 | 0 | 0 | 0 | 0 | Dose-dependant | – |
| CN1c2ccccc2C(NCCCCCCC(=O)O)c2ccc(Cl)cc2S1(=O)=O (stereo not drawn) [TIANEPTINE] | 0 | – | 0 | 3 | 0 | 2 | 0 | 4 | 0 | 1 week - 6 months | 1 | 0 | 0 | 0 | 0 | Reactive metabolite | – |
